From patent publication EP2260303B1, “BIOMARKER FOR THE DIAGNOSIS OF A BRAIN TUMOR” (Meyer, Helmut E., priority 2008, dated 2009)
One block for each compound: values may come before it.

Experiments:
[1] = tested on: Glioblastomzelllinie T98G; experiment: Chemosensitivity (dose-response curves, EC50) of T98G cell lines with modified biomarker expression; format: cell-based; settings: Homo sapiens
Excerpt: (§1) Alle erfindungsgemäßen Biomarker (SEQ ID No. 1 - 24), die in den differentiellen Untersuchungen identifiziert wurden, sind potentiell in der Lage an der Vermittlung der Chemosensitivität dieser Gliome beteiligt zu sein. Durch den Einsatz ausgewählter Zytostatika mit unterschiedlichen Wirkmechanismen kann überprüft werden, ob die erfindungsgemäßen Biomarker (SEQ ID No. 1 - 24) direkt mit dem Reaktionsmechanismus der in der Therapie üblichen Zytostatika wechselwirken. Hierzu wurden stabile Zelllinien hergestellt und die erfindungsgemäßen Biomarker verstärkt exprimiert (Überexpression) und vermindert (knock-down) exprimiert (siehe J. Sambrook, E.F. Fritsch, T. Maniatis (1989), Molecular cloning: A laboratory manual, 2nd Edition, Cold Spring Habor Laboratory Press, Cold Spring Habor, USA oder Ausubel, "Current Protocols in Molecular Biology", Green Publishing Associates and Wiley Interscience, N.Y. (1989)). Eingesetzte Zytostatika: Carmustin und Vincristin, zwei Substanzen aus dem in der Therapie üblichen PCV Polychemotherapieschema, und Temozolomid, einem in der Therapie […] maligner Gliome neueren Wirkstoff. Zur Auswertung eines Effekts wurden Dosis-Wirkungs-Kurven und deren Lage zueinander und der korrespondierende EC50 Wert (Effektkonzentration; EC-50-Wert besagt, dass bei dieser Konzentration des Stoffes die Hälfte der Versuchsorganismen Wirkungen zeigt) berechnet.

[2] = tested on: Glioblastomzelllinie A172; experiment: Chemosensitivity (dose-response curves, EC50) of A172 cell lines with modified biomarker expression; format: cell-based; settings: Homo sapiens
Excerpt: as §1

[3] = tested on: stabilen Zelllinien aus A172 und T98G; experiment: Comparison of the response of the stable A172 and T98G cell lines to cytostatics (summary in words); format: cell-based, human; settings: versus control; for Verschiebung der Konzentrationen (Dosis-Wirkungs-Kurven): both cell lines
Excerpt: as §1
Eine veränderte Reaktion auf eine Behandlung mit Carmustin wurde in allen stabilen Zelllinien aus A172 sowie aus T98G beobachtet.
Einen ähnlichen Effekt zeigte die Behandlung der Zelllinien mit Vincristin. […] Dieses Verhalten wurde ebenfalls in den beiden Zelllinien beobachtet.

EC50 ([1]; T98G knock-down of ANXA1, treatment with Carmustin): 121 µM
EC50 ([1]; T98G knock-down of CLIC1, treatment with Carmustin): 85.5 µM
EC50 ([1]; T98G knock-down of PRDX1, treatment with Carmustin): 118 µM
EC50 ([1]; T98G knock-down of VIL2, treatment with Carmustin): 159 µM
EC50 ([1]; T98G knock-down series, control cell line (Kontrolle), treatment with Carmustin): 152 µM
EC50 ([1]; T98G overexpressing ANXA1, treatment with Carmustin): 207 µM
EC50 ([1]; T98G overexpressing CLIC1, treatment with Carmustin): 346 µM
EC50 ([1]; T98G overexpressing PRDX1, treatment with Carmustin): 158 µM
EC50 ([1]; T98G overexpressing VIL2, treatment with Carmustin): 223 µM
EC50 ([1]; T98G overexpression series, control cell line (Kontrolle), treatment with Carmustin): 64.8 µM
EC50 ([2]; A 172, A172 knock-down of ANXA1, treatment with Carmustin): 95.6 µM
EC50 ([2]; A 172, A172 knock-down of CLIC1, treatment with Carmustin): 171 µM
EC50 ([2]; A 172, A172 knock-down of PRDX1, treatment with Carmustin): 107 µM
EC50 ([2]; A 172, A172 knock-down of VIL2, treatment with Carmustin): 90.8 µM
EC50 ([2]; A 172, A172 knock-down series, control cell line (Kontrolle), treatment with Carmustin): 94.4 µM
EC50 ([2]; A 172, A172 overexpressing ANXA1, treatment with Carmustin): 88.3 µM
EC50 ([2]; A 172, A172 overexpressing CLIC1, treatment with Carmustin): 105 µM
EC50 ([2]; A 172, A172 overexpressing PRDX1, treatment with Carmustin): 35.7 µM
EC50 ([2]; A 172, A172 overexpressing VIL2, treatment with Carmustin): 106 µM
EC50 ([2]; A 172, A172 overexpression series, control cell line (Kontrolle), treatment with Carmustin): 7.87 µM
SMILES: O=NN(CCCl)C(=O)NCCCl [Carmustin]

EC50 ([1]; T98G knock-down of ANXA1, treatment with Temozolomid): 386 µM
EC50 ([1]; T98G knock-down of CLIC1, treatment with Temozolomid): 335 µM
EC50 ([1]; T98G knock-down of PRDX1, treatment with Temozolomid): 383 µM
EC50 ([1]; T98G knock-down of VIL2, treatment with Temozolomid): 348 µM
EC50 ([1]; T98G knock-down series, control cell line (Kontrolle), treatment with Temozolomid): 327 µM
EC50 ([1]; T98G overexpressing ANXA1, treatment with Temozolomid): 409 µM
EC50 ([1]; T98G overexpressing CLIC1, treatment with Temozolomid): 334 µM
EC50 ([1]; T98G overexpressing PRDX1, treatment with Temozolomid): 321 µM
EC50 ([1]; T98G overexpressing VIL2, treatment with Temozolomid): 396 µM
EC50 ([1]; T98G overexpression series, control cell line (Kontrolle), treatment with Temozolomid): 394 µM
EC50 ([2]; A 172, A172 knock-down of ANXA1, treatment with Temozolomid): 113 µM
EC50 ([2]; A 172, A172 knock-down of CLIC1, treatment with Temozolomid): 150 µM
EC50 ([2]; A 172, A172 knock-down of PRDX1, treatment with Temozolomid): 118 µM
EC50 ([2]; A 172, A172 knock-down of VIL2, treatment with Temozolomid): 115 µM
EC50 ([2]; A 172, A172 knock-down series, control cell line (Kontrolle), treatment with Temozolomid): 41 µM
EC50 ([2]; A 172, A172 overexpressing ANXA1, treatment with Temozolomid): 123 µM
EC50 ([2]; A 172, A172 overexpressing CLIC1, treatment with Temozolomid): 82.6 µM
EC50 ([2]; A 172, A172 overexpressing PRDX1, treatment with Temozolomid): 26.4 µM
EC50 ([2]; A 172, A172 overexpressing VIL2, treatment with Temozolomid): 83.1 µM
EC50 ([2]; A 172, A172 overexpression series, control cell line (Kontrolle), treatment with Temozolomid): 165 µM
SMILES: Cn1nnc2c(C(N)=O)ncn2c1=O [Temozolomid]
Sensitivität ([3]; biomarkers overexpressed, stable cell lines from A172 and T98G): erhöhte Sensitivität
Sensitivität ([3]; knock-down cell lines from A172 and T98G): umgekehrter Effekt

EC50 ([1]; T98G knock-down of ANXA1, treatment with Vincristin): 0.0191 µM
EC50 ([1]; T98G knock-down of CLIC1, treatment with Vincristin): 0.0269 µM
EC50 ([1]; T98G knock-down of PRDX1, treatment with Vincristin): 0.0206 µM
EC50 ([1]; T98G knock-down of VIL2, treatment with Vincristin): 0.0358 µM
EC50 ([1]; T98G knock-down series, control cell line (Kontrolle), treatment with Vincristin): 0.01 µM
EC50 ([1]; T98G overexpressing ANXA1, treatment with Vincristin): 0.0042 µM
EC50 ([1]; T98G overexpressing CLIC1, treatment with Vincristin): 0.0037 µM
EC50 ([1]; T98G overexpressing PRDX1, treatment with Vincristin): 0.0096 µM
EC50 ([1]; T98G overexpressing VIL2, treatment with Vincristin): 0.0241 µM
EC50 ([1]; T98G overexpression series, control cell line (Kontrolle), treatment with Vincristin): 0.0324 µM
EC50 ([2]; A 172, A172 knock-down of ANXA1, treatment with Vincristin): 0.037 µM
EC50 ([2]; A 172, A172 knock-down of CLIC1, treatment with Vincristin): 0.0642 µM
EC50 ([2]; A 172, A172 knock-down of PRDX1, treatment with Vincristin): 0.0527 µM
EC50 ([2]; A 172, A172 knock-down of VIL2, treatment with Vincristin): 0.0202 µM
EC50 ([2]; A 172, A172 knock-down series, control cell line (Kontrolle), treatment with Vincristin): 0.0322 µM
EC50 ([2]; A 172, A172 overexpressing ANXA1, treatment with Vincristin): 0.0153 µM
EC50 ([2]; A 172, A172 overexpressing CLIC1, treatment with Vincristin): 0.0193 µM
EC50 ([2]; A 172, A172 overexpressing PRDX1, treatment with Vincristin): 0.0127 µM
EC50 ([2]; A 172, A172 overexpressing VIL2, treatment with Vincristin): 0.0033 µM
EC50 ([2]; A 172, A172 overexpression series, control cell line (Kontrolle), treatment with Vincristin): 0.0152 µM
SMILES: CC[C@]1(O)C[C@H]2CN(CCc3c([nH]c4ccccc34)[C@@](C(=O)OC)(c3cc4c(cc3OC)N(C=O)[C@H]3[C@@](O)(C(=O)OC)[C@H](OC(C)=O)[C@]5(CC)C=CCN6CC[C@]43[C@@H]65)C2)C1 [Vincristin]
Verschiebung der Konzentrationen (Dosis-Wirkungs-Kurven) ([3]; cell lines overexpressing the biomarkers): Verschiebung zu niedrigeren Konzentrationen
Verschiebung der Konzentrationen (Dosis-Wirkungs-Kurven) ([3]; knock-down of the biomarkers): höhere Konzentrationen notwendig
